Read-outs that look alike come from different tables or passages of the source.
Experiments:
[1] = test system: Panc1 pancreatic cancer cell line; test: CellTiter-Glo IC50 (Example 19); format: cell-based; conditions: Homo sapiens, PANC-1, 72 h
Experimental: Some representative imipridones and ONC212 as reference were further tested on the following human malignant cell lines: PC3 and LNCap (prostate carcinoma); BxPC3, MiaPaCa2 and Panc1 (pancreatic cancer); A549, HCC827, H1993 and H520 (lung carcinoma); MDA-MB-453 and MDA-MB-231 (breast cancer) (see Table 2 and FIGS. 1-11).
(§1) Cell lines were maintained according to the instructions provided by ATCC (https://www.lgcstandards-atcc.org/) in a 5% CO2 humidified incubator maintained at 37° C. temperature. Effects of compounds on cell viability were measured via CellTiter-Glo® luminescent cell viability assay (Promega, Madison, WI, USA) Cells were plated at 1000 cells/well onto a flat-bottomed, white 96 well plate (BRANDplates, cat. no.: 781965). […] After the treatment, medium was removed and CellTiter-Glo® reagent was added. The luminescence signal was recorded using a microplate reader (BioTek Synergy 2 Multi-Mode Reader, BioTek, Winooski, VT, USA).
(§2) Cell viability data (% of untreated control cells) was evaluated with Microsoft Excel. Dose-response curves (using a non-linear regression model, log (inhibitor) vs response, variable slope) were generated and IC50 values were determined using Graph Pad Prism 5.02 software (GraphPad Software, San Diego, CA, USA).

Fadu cell line = test: Additional in vitro IC50 tests (Table 3); format: cell-based; conditions: Homo sapiens
Experimental: as §1, §2

EBC-1 cell line = test: Additional in vitro IC50 tests (Table 3); format: cell-based; conditions: Homo sapiens
Experimental: as §1, §2

SCC-25 cell line = test: Additional in vitro IC50 tests (Table 3); format: cell-based; conditions: Homo sapiens
Experimental: as §1, §2

Detroit 562 cell line = test: Additional in vitro IC50 tests (Table 3); format: cell-based; conditions: Homo sapiens
Experimental: as §1, §2

H2228 cell line = test: Additional in vitro IC50 tests (Table 3); format: cell-based; conditions: Homo sapiens, NCI-H2228
Experimental: as §1, §2

[2] = test system: H2228 lung cancer cell line; test: High-throughput screening, CellTiter-Glo cell viability assay at 100 nM; format: cell-based, human; conditions: Homo sapiens, NCI-H2228, HTS, compounds at 100 nM, 72 h, read-out: cytotoxicity expressed in IC50, H2228 (results of High throughput screening)
[3] = test system: EBC-1 lung cancer cell line; test: as above; format: cell-based, human; conditions: Homo sapiens, EBC-1, HTS, compounds at 100 nM, 72 h, read-out: cytotoxicity expressed in IC50, EBC-1 (results of High throughput screening)
[4] = test system: MDA-MB-231 (breast, adenocarcinoma) cells; test: Cell viability assay, CellTiter-Glo (Example 21); format: cell-based, human; conditions: 72 h treatment
Experimental: (§3) Effect of the selected compounds on cancer cell viability was measured via CellTiter-Glo® luminescent cell viability assay (Promega, Madison, WI, USA) according to the manufacturer's instructions. Cells were plated onto a flat-bottomed, white 96 well plate (BRANDplates®, cat. no.: 781965). Density of the seeded cells was optimized based on their size and growth rate, as the follows: Panc-1:750 cells/well; DU 145, PC-3, Capan-1, MIA PaCa-2, SCC-25, FaDu and EBC-1: 1000 cells/well; LNCaP, Detroit 562, MDA-MB-231 and MDA-MB-453 1500 cells/well. […] After the treatment, the luminescence signal was recorded using a microplate reader (BioTek Synergy 2 Multi-Mode Reader, BioTek, Winooski, VT, USA). Dose-response curves were generated by GraphPad Prism 8.4.2. software using a non-linear regression model (variable slope, four parameters), (see FIGS. 12-51).

[5] = test system: Capan-1 (pancreas, adenocarcinoma) cells; test: Cell viability assay, CellTiter-Glo (Example 21); format: cell-based, human; conditions: 72 h treatment
Experimental: as §3

[6] = test system: LNCaP (prostate, carcinoma) cells; test: Cell viability assay, CellTiter-Glo (Example 21); format: cell-based, human; conditions: 72 h
Experimental: as §3

[7] = test system: MIA PaCa-2 (pancreas, carcinoma) cells; test: Cell viability assay, CellTiter-Glo (Example 21); format: cell-based, human; conditions: 72 h treatment
Experimental: as §3

[8] = test system: MDA-MB-453 (breast, carcinoma) cells; test: Cell viability assay, CellTiter-Glo (Example 21); format: cell-based, human; conditions: 72 h treatment
Experimental: as §3

[9] = test system: SCC-25 (tongue, squamous cell carcinoma) cells; test: Cell viability assay, CellTiter-Glo (Example 21); format: cell-based, human; conditions: 72 h treatment
Experimental: as §3

[10] = test system: Panc-1 (pancreas, carcinoma) cells; test: Cell viability assay, CellTiter-Glo (Example 21); format: cell-based, human; conditions: 72 h treatment
Experimental: as §3

[11] = test system: PC-3 (prostate, adenocarcinoma) cells; test: Cell viability assay, CellTiter-Glo (Example 21); format: cell-based, human; conditions: 72 h treatment
Experimental: as §3

[12] = test system: EBC-1 (lung, squamous cell carcinoma) cells; test: Cell viability assay, CellTiter-Glo (Example 21); format: cell-based, human; conditions: 72 h treatment
Experimental: as §3

[13] = test system: DU 145 (prostate, carcinoma) cells; test: Cell viability assay, CellTiter-Glo (Example 21); format: cell-based, human; conditions: 72 h
Experimental: as §3

[14] = test system: Detroit 562 (pharynx, carcinoma) cells; test: Cell viability assay, CellTiter-Glo (Example 21); format: cell-based, human; conditions: 72 h treatment
Experimental: as §3

[15] = test system: FaDu (pharynx, squamous cell carcinoma) cells; test: Cell viability assay, CellTiter-Glo (Example 21); format: cell-based, human; conditions: 72 h treatment
Experimental: as §3

[16] = test system: PANC-1 (human pancreatic carcinoma) cells; test: Impedance-based viability assay (xCELLigence SP), long treatment; format: cell-based; conditions: 72 h, read-out: cytotoxicity expressed in IC50, PANC-1
Excerpt: (Gibco®/Invitrogen Corporation, New York, NY, USA).
Data obtained from each experiment represent mathematical averages.

Panc-1 human cell line = test: Cytotoxicity on Panc-1, xCELLigence SP, IC50 after 24 h, 48 h, 72 h and 96 h (Example 22)

O=C1C2=C(CCN(Cc3cc(F)cc(F)c3)C2)N2CCN=C2N1Cc1cccc(Cl)c1 [I/125, 4-(3-Chlorobenzyl)-7-(3,5-difluorobenzyl)-2,4,6,7,8,9-hexahydroimidazo[1,2-a]pyrido[3,4-e]pyrimidin-5(1H)-one]
melting point: 204.8 °C

O=C1C2=C(CCN(Cc3cc(F)cc(F)c3)C2)N2CCN=C2N1[C@@H](CO)c1ccc(F)cc1 [I/129 (R)]
melting point: 76 °C | IC50 [1]: 15 nM

Nc1cccc(CN2C(=O)C3=C(CCN(Cc4cc(F)cc(F)c4)C3)N3CCN=C23)c1 [I/126, 4-(3-Aminobenzyl)-7-(3,5-difluorobenzyl)-2,4,6,7,8,9-hexahydroimidazo[1,2-a]pyrido[3,4-e]pyrimidin-5(1H)-one]
IC50 (Fadu cell line): 290 nM | IC50 (EBC-1 cell line): 288 nM | IC50 (SCC-25 cell line): > 300 nM | IC50 (Detroit 562 cell line): 103 nM | IC50 (H2228 cell line): 269 nM | melting point: 114.5 °C

O=C1C2=C(CCN(Cc3cccc(F)c3)C2)N2CCN=C2N1Cc1ccc(F)cc1 [I/6, reference compound]
IC50 [2]: < 100 nM | IC50 [3]: < 100 nM | MDA-MB-231 (breast, adenocarcinoma) cell viability (% of control) ([4]; 3.7 nM): 100.5 ± 5.4 % of control | MDA-MB-231 (breast, adenocarcinoma) cell viability (% of control) ([4]; 11.1 nM): 99.4 ± 4.1 % of control | MDA-MB-231 (breast, adenocarcinoma) cell viability (% of control) ([4]; 100 nM): 57.7 ± 3.8 % of control | MDA-MB-231 (breast, adenocarcinoma) cell viability (% of control) ([4]; 300 nM): 57.4 ± 1.7 % of control | Capan-1 (pancreas, adenocarcinoma) cell viability (% of control) ([5]; 3.7 nM): 105.9 ± 7.8 % of control | Capan-1 (pancreas, adenocarcinoma) cell viability (% of control) ([5]; 11.1 nM): 106.0 ± 8.0 % of control | Capan-1 (pancreas, adenocarcinoma) cell viability (% of control) ([5]; 100 nM): 40.1 ± 3.7 % of control | Capan-1 (pancreas, adenocarcinoma) cell viability (% of control) ([5]; 300 nM): 37.4 ± 3.5 % of control | LNCaP cell viability ([6]; 3.7 nM): 101.8 ± 5.6 % of control | LNCaP cell viability ([6]; 11.1 nM): 97.9 ± 7.3 % of control | LNCaP cell viability ([6]; 100 nM): 15.4 ± 2.0 % of control | LNCaP cell viability ([6]; 300 nM): 14.4 ± 0.7 % of control | MIA PaCa-2 (pancreas, carcinoma) cell viability (% of control) ([7]; 3.7 nM): 101.6 ± 10.8 % of control | MIA PaCa-2 (pancreas, carcinoma) cell viability (% of control) ([7]; 11.1 nM): 110.7 ± 6.4 % of control | MIA PaCa-2 (pancreas, carcinoma) cell viability (% of control) ([7]; 100 nM): 21.6 ± 9.1 % of control | MIA PaCa-2 (pancreas, carcinoma) cell viability (% of control) ([7]; 300 nM): 19.5 ± 7.5 % of control | MDA-MB-453 (breast, carcinoma) cell viability (% of control) ([8]; 3.7 nM): 113.6 ± 9.8 % of control | MDA-MB-453 (breast, carcinoma) cell viability (% of control) ([8]; 11.1 nM): 103.7 ± 10.4 % of control | MDA-MB-453 (breast, carcinoma) cell viability (% of control) ([8]; 100 nM): 33.9 ± 1.3 % of control | MDA-MB-453 (breast, carcinoma) cell viability (% of control) ([8]; 300 nM): 32.0 ± 1.1 % of control | SCC-25 (tongue, squamous cell carcinoma) cell viability (% of control) ([9]; 3.7 nM): 101.8 ± 4.3 % of control | SCC-25 (tongue, squamous cell carcinoma) cell viability (% of control) ([9]; 11.1 nM): 96.2 ± 4.8 % of control | SCC-25 (tongue, squamous cell carcinoma) cell viability (% of control) ([9]; 100 nM): 42.5 ± 1.8 % of control | SCC-25 (tongue, squamous cell carcinoma) cell viability (% of control) ([9]; 300 nM): 41.5 ± 3.1 % of control | Panc-1 (pancreas, carcinoma) cell viability (% of control) ([10]; 3.7 nM): 107.8 ± 16.0 % of control | Panc-1 (pancreas, carcinoma) cell viability (% of control) ([10]; 11.1 nM): 109.1 ± 4.2 % of control | Panc-1 (pancreas, carcinoma) cell viability (% of control) ([10]; 100 nM): 57.1 ± 0.1 % of control | Panc-1 (pancreas, carcinoma) cell viability (% of control) ([10]; 300 nM): 57.2 ± 3.2 % of control | PC-3 (prostate, adenocarcinoma) cell viability (% of control) ([11]; 3.7 nM): 103.6 ± 14.4 % of control | PC-3 (prostate, adenocarcinoma) cell viability (% of control) ([11]; 11.1 nM): 108.7 ± 7.7 % of control | PC-3 (prostate, adenocarcinoma) cell viability (% of control) ([11]; 100 nM): 35.3 ± 0.5 % of control | PC-3 (prostate, adenocarcinoma) cell viability (% of control) ([11]; 300 nM): 34.1 ± 2.0 % of control | EBC-1 (lung, squamous cell carcinoma) cell viability (% of control) ([12]; 3.7 nM): 101.0 ± 19.5 % of control | EBC-1 (lung, squamous cell carcinoma) cell viability (% of control) ([12]; 11.1 nM): 101.7 ± 3.3 % of control | EBC-1 (lung, squamous cell carcinoma) cell viability (% of control) ([12]; 100 nM): 25.1 ± 0.3 % of control | EBC-1 (lung, squamous cell carcinoma) cell viability (% of control) ([12]; 300 nM): 24.1 ± 2.4 % of control | DU 145 cell viability ([13]; 3.7 nM): 96.8 ± 3.7 % of control | DU 145 cell viability ([13]; 11.1 nM): 93.4 ± 2.2 % of control | DU 145 cell viability ([13]; 100 nM): 8.0 ± 1.4 % of control | DU 145 cell viability ([13]; 300 nM): 7.9 ± 1.6 % of control | Detroit 562 (pharynx, carcinoma) cell viability (% of control) ([14]; 3.7 nM): 99.8 ± 6.4 % of control | Detroit 562 (pharynx, carcinoma) cell viability (% of control) ([14]; 11.1 nM): 50.9 ± 15.2 % of control | Detroit 562 (pharynx, carcinoma) cell viability (% of control) ([14]; 100 nM): 31.6 ± 2.1 % of control | Detroit 562 (pharynx, carcinoma) cell viability (% of control) ([14]; 300 nM): 33.0 ± 3.4 % of control | FaDu (pharynx, squamous cell carcinoma) cell viability (% of control) ([15]; 3.7 nM): 97.9 ± 3.9 % of control | FaDu (pharynx, squamous cell carcinoma) cell viability (% of control) ([15]; 11.1 nM): 97.8 ± 5.2 % of control | FaDu (pharynx, squamous cell carcinoma) cell viability (% of control) ([15]; 100 nM): 27.3 ± 5.2 % of control | FaDu (pharynx, squamous cell carcinoma) cell viability (% of control) ([15]; 300 nM): 25.2 ± 4.6 % of control | IC50 [16]: < 100 nM | IC50 (Panc-1 human cell line; PANC-1, 72 h, read-out: IC50 (72 h) [nM]): 126 ± 5.96 nM | IC50 (Panc-1 human cell line; PANC-1, 96 h, read-out: IC50 (96 h) [nM]): 75.5 ± 6.76 nM

— patent US20230295162A1 (EÖTVÖS LORÁND TUDOMÁNYEGYETEM, priority 2020, published 2023)
